Measured values from patent US20250325552A1, “SUBSTITUTED THIADIAZOLYL DERIVATIVES AS DNA POLYMERASE THETA INHIBITORS” (IDEAYA Biosciences, Inc., priority 2020, published 2025).
pIC50: −log10 of the molar value.

The molecules below were run against Polθ theta (1-899) (hPolQ) (Homo sapiens (Human), UniProt O75417) (assay: Biological Assay 1: Polθ ATPase activity, NADH oxidation-coupled enzymatic assay (10 nM enzyme, 30 min)). Settings: Polθ (1-899) 10 nM, 100 μM ATP, 300 nM dT50 ssDNA; Examples 1 to 268; read-out: ATPase NADH coupling:Standard Screening:hPolQ IC50.
Polθ theta (1-899) (hPolQ), sequence (O75417 1-899): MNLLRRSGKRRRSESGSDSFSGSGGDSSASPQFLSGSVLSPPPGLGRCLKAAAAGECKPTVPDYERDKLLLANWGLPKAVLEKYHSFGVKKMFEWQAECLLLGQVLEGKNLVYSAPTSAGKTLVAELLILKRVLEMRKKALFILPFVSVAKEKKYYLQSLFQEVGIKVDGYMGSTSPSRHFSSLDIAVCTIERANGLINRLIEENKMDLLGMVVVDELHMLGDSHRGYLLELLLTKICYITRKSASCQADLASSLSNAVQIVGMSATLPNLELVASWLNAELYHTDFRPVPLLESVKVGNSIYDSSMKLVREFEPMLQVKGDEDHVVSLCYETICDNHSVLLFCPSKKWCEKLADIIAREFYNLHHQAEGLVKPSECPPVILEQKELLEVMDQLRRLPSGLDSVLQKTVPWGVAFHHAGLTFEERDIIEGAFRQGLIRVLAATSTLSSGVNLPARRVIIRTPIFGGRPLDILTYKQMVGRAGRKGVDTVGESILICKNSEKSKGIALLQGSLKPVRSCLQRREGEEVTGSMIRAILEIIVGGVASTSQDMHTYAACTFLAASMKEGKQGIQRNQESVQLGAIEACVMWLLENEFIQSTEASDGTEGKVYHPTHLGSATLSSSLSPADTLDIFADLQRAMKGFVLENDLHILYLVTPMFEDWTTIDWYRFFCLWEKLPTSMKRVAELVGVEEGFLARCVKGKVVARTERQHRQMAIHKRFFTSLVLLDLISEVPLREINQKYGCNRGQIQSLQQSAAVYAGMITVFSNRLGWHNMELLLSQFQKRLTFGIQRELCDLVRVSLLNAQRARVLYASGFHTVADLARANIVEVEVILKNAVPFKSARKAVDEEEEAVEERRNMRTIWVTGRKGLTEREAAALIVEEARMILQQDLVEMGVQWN
Assay type: biochemical
Procedure, shortened: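 ATP turnover was coupled to NADH oxidation and followed at 340 nm every minute for 30 min. Enzyme (residues 1-899, 10 nM) sat with compound for 15 min at room temperature before an equal-volume addition of 100 μM ATP plus 300 nM dT50 ssDNA. Progress-curve slopes from 10-point dilutions were fitted by a four-parameter model.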

Row | pIC50 | Compound
1 | ≥ 6.70 | COc1c(-c2cc(C)ncc2C(=O)Nc2nnc(OCc3ccc(Cl)cn3)s2)ccnc1Cl [Example 77, 2′-chloro-N-(5-((5-chloropyridin-2-yl)methoxy)-1,3,4-thiadiazol-2-yl)-3′-methoxy-6-methyl-(4,4′-bipyridine)-3-carboxamide]
2 | ≥ 6.70 | COc1cccc(F)c1-c1cc(C)ncc1C(=O)Nc1nnc(OCc2ccc([S@@](C)(=N)=O)cn2)s1 [Example 150, 4-(2-fluoro-6-methoxyphenyl)-6-methyl-N-(5-((5-((S)—S-methylsulfonimidoyl)pyridin-2-yl)methoxy)-1,3,4-thiadiazol-2-yl)nicotinamide]
3 | ≥ 6.70 | COc1ccccc1-c1cc(C)ncc1C(=O)Nc1nnc(O[C@@H](C)c2ccc(Cl)cn2)s1 [Example 11, (S)—N-(5-(1-(5-chloropyridin-2-yl)ethoxy)-1,3,4-thiadiazol-2-yl)-4-(2-methoxyphenyl)-6-methylnicotinamide]
4 | ≥ 6.70 | Cc1cc(-c2cc(Cl)ncc2OC(F)F)c(C(=O)Nc2nnc(OC[C@@H]3CCOC3)s2)cn1 (single isomer, unassigned) [Example 258]
5 | 6.30 to 6.70 | COc1cc(CO)ccc1-c1cc(C)ncc1C(=O)Nc1nnc(OCc2ccc(Cl)cn2)s1 [Example 31, N-(5-((5-chloropyridin-2-yl)methoxy)-1,3,4-thiadiazol-2-yl)-4-(4-(hydroxymethyl)-2-methoxyphenyl)-6-methylnicotinamide]
6 | ≥ 6.70 | COc1cccc(F)c1-c1cc(C)ncc1C(=O)Nc1nnc(OCc2ccc3c(n2)CCC[C@H]3O)s1 [Example 117, 4-(2-fluoro-6-methoxyphenyl)-N-(5-(((R)-5-hydroxy-5,6,7,8-tetrahydroquinolin-2-yl)methoxy)-1,3,4-thiadiazol-2-yl)-6-methylnicotinamide]
7 | ≥ 6.70 | COc1cccc(F)c1-c1cc(C)ncc1C(=O)Nc1nnc(OCc2ccc3c(n2)CCCC3O)s1 (racemic) [Example 92, 4-(2-fluoro-6-methoxyphenyl)-N-(5-((5-hydroxy-5,6,7,8-tetrahydroquinolin-2-yl)methoxy)-1,3,4-thiadiazol-2-yl)-6-methylnicotinamide]
8 | 6.00 to 6.30 | COc1ccccc1-c1cc(C)ncc1C(=O)Nc1nnc(OCc2ccc3c(n2)CCNC3)s1 [Example 71, 4-(2-methoxyphenyl)-6-methyl-N-(5-(5,6,7,8-tetrahydro-1,6-naphthyridin-2-ylmethoxy)-1,3,4-thiadiazol-2-yl)pyridine-3-carboxamide]
9 | ≥ 6.70 | COc1cnc(Cl)cc1-c1cc(C)ncc1C(=O)Nc1nnc(OC[C@H]2CC[C@@H](F)CC2)s1 [Example 196, 2′-chloro-N-(5-(((1s,4s)-4-fluorocyclohexyl)methoxy)-1,3,4-thiadiazol-2-yl)-5′-methoxy-6-methyl-(4,4′-bipyridine)-3-carboxamide]
10 | ≥ 6.70 | COc1cccc(F)c1-c1cc(C)ncc1C(=O)Nc1nnc(OCc2ccc(C(C)(C)OC)cn2)s1 [Example 80, 4-(2-fluoro-6-methoxyphenyl)-N-(5-((5-(2-methoxypropan-2-yl)pyridin-2-yl)methoxy)-1,3,4-thiadiazol-2-yl)-6-methylnicotinamide]
11 | ≥ 6.70 | COc1cnc(Cl)cc1-c1cc(C)ncc1C(=O)Nc1nnc(OC[C@@H]2CO[C@H](CO)CO2)s1 (racemic) [Example 237, rel-2′-chloro-N-(5-(((2s,5r)-5-(hydroxymethyl)-1,4-dioxan-2-yl)methoxy)-1,3,4-thiadiazol-2-yl)-5′-methoxy-6-methyl-(4,4′-bipyridine)-3-carboxamide]
12 | ≥ 6.70 | COc1cnc(Cl)cc1-c1cc(C)ncc1C(=O)Nc1nnc(OC[C@H]2CCOC2(C)C)s1 (single isomer, unassigned) [Example 190]
13 | ≥ 6.70 | COc1cnc(C)c(F)c1-c1cc(C)ncc1C(=O)Nc1nnc(OC[C@@H]2CCOC2)s1 [Example 250, 3′-fluoro-5′-methoxy-2′,6-dimethyl-N-(5-(((R)-tetrahydrofuran-3-yl)methoxy)-1,3,4-thiadiazol-2-yl)-(4,4′-bipyridine)-3-carboxamide]
14 | ≥ 6.70 | COc1cnc(Cl)cc1-c1cc(C)ncc1C(=O)Nc1nnc(OCC2CCOC2)s1 (stereo in doubt) [Example 170, (R)-2′-chloro-5′-methoxy-6-methyl-N-(5-((tetrahydrofuran-3-yl)methoxy)-1,3,4-thiadiazol-2-yl)-(4,4′-bipyridine)-3-carboxamide]
15 | ≥ 6.70 | COc1ccccc1-c1cc(C)ncc1C(=O)Nc1nnc(OCc2ccc(C3(C(=O)O)CC3)cn2)s1 [compound 4, 1-(6-(((5-(4-(2-methoxyphenyl)-6-methylnicotinamido)-1,3,4-thiadiazol-2-yl)oxy)methyl)pyridin-3-yl)cyclopropane-1-carboxylic acid]
16 | 6.30 to 6.70 | COc1ccccc1-c1cc(C)ncc1C(=O)Nc1nnc(OCc2cc(CO)ccn2)s1 [Example 42, N-(5-((4-(hydroxymethyl)pyridin-2-yl)methoxy)-1,3,4-thiadiazol-2-yl)-4-(2-methoxyphenyl)-6-methylpyridine-3-carboxamide]
17 | 6.30 to 6.70 | COc1cccc(F)c1-c1cc(C)ncc1C(=O)Nc1nnc(OCc2cnc(C(C)(C)O)cn2)s1 [Example 119, 4-(2-fluoro-6-methoxyphenyl)-N-(5-((5-(2-hydroxypropan-2-yl)pyrazin-2-yl)methoxy)-1,3,4-thiadiazol-2-yl)-6-methylnicotinamide]
18 | ≥ 6.70 | COc1cnc(Cl)cc1-c1cc(C)ncc1C(=O)Nc1nnc(OC[C@@H]2CCO[C@@H]2C)s1 (single isomer, unassigned) [Example 179]
19 | ≥ 6.70 | COc1cnc(Cl)cc1-c1cc(C)ncc1C(=O)Nc1nnc(OCC2COC(C)(C)C2)s1 (stereo in doubt) [Example 189, (S)-2′-chloro-N-(5-((5,5-dimethyltetrahydrofuran-3-yl)methoxy)-1,3,4-thiadiazol-2-yl)-5′-methoxy-6-methyl-(4,4′-bipyridine)-3-carboxamide]
20 | ≥ 6.70 | Cc1cc(-c2cc(Cl)ncc2OC(F)F)c(C(=O)Nc2nnc(OC[C@H]3COCCO3)s2)cn1 [Example 234, (R)—N-(5-((1,4-dioxan-2-yl)methoxy)-1,3,4-thiadiazol-2-yl)-2′-chloro-5′-(difluoromethoxy)-6-methyl-(4,4′-bipyridine)-3-carboxamide]
21 | ≥ 6.70 | COc1cnc(Cl)cc1-c1cc(COC2CC2)ncc1C(=O)Nc1nnc(OC[C@H]2CC[C@H](O)CC2)s1 [Example 232, 2′-chloro-6-(cyclopropoxymethyl)-N-(5-(((1r,4r)-4-hydroxycyclohexyl)methoxy)-1,3,4-thiadiazol-2-yl)-5′-methoxy-(4,4′-bipyridine)-3-carboxamide]
22 | ≥ 6.70 | COc1ccc(Cl)cc1-c1cnncc1C(=O)Nc1nnc(OCC23CCC(F)(CC2)CC3)s1 [Example 142, 5-(5-chloro-2-methoxyphenyl)-N-(5-((4-fluorobicyclo(2.2.2)octan-1-yl)methoxy)-1,3,4-thiadiazol-2-yl)pyridazine-4-carboxamide]

Same assay, conditions: Polθ (1-899) 10 nM, 100 μM ATP, 300 nM dT50 ssDNA; value printed as bound; read-out: ATPase NADH coupling:Standard Screening:hPolQ IC50

Row | pIC50 | Compound
23 | < 5.00 | O=C(Nc1nnc(OCC2CCOCC2)s1)c1cccnc1N1CCOCC1 [Example 157, 2-morpholino-N-(5-((tetrahydro-2H-pyran-4-yl)methoxy)-1,3,4-thiadiazol-2-yl)nicotinamide]
